Patent US20110152271A1, “Compositions and methods for ophthalmic delivery of nasal decongestants” (priority 2009, published 2011)
Like-named read-outs stand apart in the source and are kept apart here.

Legend:
[1] = 0.025% brimonidine topically to one eye; 10 minutes; 11 individuals
Description: 11 individuals were asked to assess the patency of each nostril by alternately closing one. They were then given 0.025% brimonidine topically to one randomly selected eye. After 10 minutes each nostril was alternately closed to assess the patency of the contralateral nostril and compare to its patency before applying brimonidine to the eye. […] Nasal patency refers to a basic evaluation of the degree to which a nostril is open (i.e. unblocked).

[2] = Description: 1 drop of 0.025% brimonidine was applied to the right eye of each patient. […] Then, the breathing function was measured in each nostril separately 10 minutes later. Then, 1 dose of 0.0045% brimonidine nasal spray was applied into the left nostril and the ease of breathing was again measured in each nostril separately 10 minutes later.
[3] = 0.025% brimonidine in one eye
Description: Eight (8) human subjects were administered 0.025% brimonidine. The subjects were administered with the drug in one eye and then asked to assess themselves in the mirror to see if they perceived a difference in conjunctival hyperemia between eyes. The drug was administered around 9:15 am. The assessments were made 5 minutes after the administration and 4 hours after the administration. After the four hours assessment, the drug was re-administered.

Structure (SMILES): Brc1c(NC2=NCCN2)ccc2nccnc12 [brimonidine]
- increase in patency in the contralateral nostril [1]: not in the contralateral
- patients with noticeable increase in patency in the ipsilateral nostril [1]: 9 of the 11
- whiteness of the treated right eye ([2]; 1 drop of 0.025% brimonidine to the right eye): In all patients, the right eye has become whiter
- patients reporting reduced nasal congestion in the right nostril ([2]; 1 drop of 0.025% brimonidine to the right eye, 10 minutes later, three subjects with records): all three patients reported reducing nasal congestion in the right nostril
- patients reporting reduced nasal congestion in both nostrils ([2]; after eye drop, 1 dose of 0.0045% brimonidine nasal spray into the left nostril, 10 minutes later, three subjects with records): all three patients reported reduced nasal congestion in the both nostrils
- subjects reporting reduced hyperemia and increased whiteness in the treated eye ([3]; 5 min assessment): eight of eight
- subjects reporting reduced hyperemia and increased whiteness in the treated eye ([3]; four hour assessment): eight of eight
- subjects reporting reduced nasal congestion in the nostril on the same side as the treated eye ([3]; four hour assessment): six of eight
